Measured values as given in the supplement of paper PMC9663587.

Columns and labels:
MCF7 = assay: GRmax, 72 h; higher = less effect;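 further: breast cell lines in 384-well plates, nine doses across a 10^4 range, Dye Drop imaging of viable cells vs DMSO and time-zero plates, GR 0 means no net growth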
MDAMB415 = assay: GRmax, 72 h; higher = less effect;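 further: breast cell lines in 384-well plates, nine doses across a 10^4 range, Dye Drop imaging of viable cells vs DMSO and time-zero plates, GR 0 means no net growth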
HCC1187 [1] = assay: GRmax, 72 h; higher = less effect;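 further: breast cell lines in 384-well plates, nine doses across a 10^4 range, Dye Drop imaging of viable cells vs DMSO and time-zero plates, GR 0 means no net growth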
CAL51 = assay: GRmax, 72 h; higher = less effect;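 further: breast cell lines in 384-well plates, nine doses across a 10^4 range, Dye Drop imaging of viable cells vs DMSO and time-zero plates, GR 0 means no net growth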
HCC1419 = assay: GRmax, 72 h; higher = less effect
HCC1143 = assay: GRmax, 72 h; higher = less effect
MGH312 = assay: GRmax, 72 h; higher = less effect
BT474 = assay: GRmax, 72 h; higher = less effect
HCC1806 = assay: GRmax, 72 h; higher = less effect
HCC1187 [2] = assay: area over the GR curve, 72 h; higher = more effect;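 further: Dye Drop or Deep Dye Drop imaging of viable cells in 384-well plates (Hoechst nuclei, LIVE/DEAD dye), nine half-log doses, GR normalized to DMSO controls and time-zero plates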
SUM185PE = assay: area over the GR curve, 72 h; higher = more effect;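 further: Dye Drop or Deep Dye Drop imaging of viable cells in 384-well plates (Hoechst nuclei, LIVE/DEAD dye), nine half-log doses, GR normalized to DMSO controls and time-zero plates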
HCC1954 = assay: area over the GR curve, 72 h; higher = more effect;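 further: Dye Drop or Deep Dye Drop imaging of viable cells in 384-well plates (Hoechst nuclei, LIVE/DEAD dye), nine half-log doses, GR normalized to DMSO controls and time-zero plates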
HS578T = assay: area over the GR curve, 72 h; higher = more effect;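 further: Dye Drop or Deep Dye Drop imaging of viable cells in 384-well plates (Hoechst nuclei, LIVE/DEAD dye), nine half-log doses, GR normalized to DMSO controls and time-zero plates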

| Structure (SMILES) | GRmax, 72 h (MCF7) [GR] | GRmax, 72 h (MDAMB415) [GR] | GRmax, 72 h (HCC1187 [1]) [GR] | GRmax, 72 h (CAL51) [GR] | GRmax, 72 h (HCC1419) [GR] | GRmax, 72 h (HCC1143) [GR] | GRmax, 72 h (MGH312) [GR] | GRmax, 72 h (BT474) [GR] | GRmax, 72 h (HCC1806) [GR] | area over the GR curve (HCC1187 [2]) [GR] | area over the GR curve (SUM185PE) [GR] | area over the GR curve (HCC1954) [GR] | area over the GR curve (HS578T) [GR] |
| --- | --- | --- | --- | --- | --- | --- | --- | --- | --- | --- | --- | --- | --- |
| COc1cc2nccc(Oc3ccc(NC(=O)C4(C(=O)Nc5ccc(F)cc5)CC4)cc3)c2cc1OC [Cabozantinib] (max 10 µM) | -0.0993 | 0.412 | 0.222 | 0.306 | 0.622 | 0.512 | 0.332 | 0.647 | 0.691 | 0.39 | -0.023 | -0.0867 | 0.134 |
| COc1cc2c(Oc3ccc4[nH]c(C)cc4c3F)ncnc2cc1OCCCN1CCCC1 [Cediranib/AZD2171] (max 10 µM) | 0.115 | -0.208 | 0.349 | -0.103 | -0.0329 | 0.0093 | -0.0842 | 0.742 | 0.0954 | 0.195 | 0.582 | 0.0591 | 0.394 |
| Cc1cc(Nc2ncc(Cl)c(Nc3ccccc3S(=O)(=O)C(C)C)n2)c(OC(C)C)cc1C1CCNCC1 [Ceritinib/LDK378] (max 10 µM) | -0.616 | -0.975 | 0.121 | -0.476 | -0.867 | -0.422 | -0.156 | 1.18 | -0.406 | 0.168 | 0.261 | 0.124 | 0.305 |
| N.N.[Cl][Pt][Cl] [Cisplatin] (max 10 µM) | 0.475 |  |  | -0.0329 | 0.0949 | 0.0754 |  |  | -0.365 |  |  | 0.275 | 0.235 |
| Cc1nc(Nc2ncc(C(=O)Nc3c(C)cccc3Cl)s2)cc(N2CCN(CCO)CC2)n1 [Dasatinib] (max 10 µM) | 0.157 | 0.342 | 0.069 | 0.0983 | -0.196 | 0.257 | 0.0774 | -0.42 | -0.0992 | 0.618 | 0.455 | 0.189 | 0.71 |
| COc1cccc2c1C(=O)c1c(O)c3c(c(O)c1C2=O)C[C@@](O)(C(=O)CO)C[C@@H]3O[C@H]1C[C@H](N)[C@H](O)[C@H](C)O1 [Doxorubicin] (max 3.162 µM) | -0.286 | -0.423 | -0.83 | -0.48 | -0.466 | -0.251 | -0.963 | -0.605 | -0.324 | 1.08 | 0.0881 | 0.73 | 0.801 |
| CO[C@H]1C[C@@H]2CC[C@@H](C)[C@@](O)(O2)C(=O)C(=O)N2CCCC[C@H]2C(=O)O[C@H]([C@H](C)C[C@@H]2CC[C@@H](OCCO)[C@H](OC)C2)CC(=O)[C@H](C)/C=C(\C)[C@@H](O)[C@@H](OC)C(=O)[C@H](C)C[C@H](C)/C=C/C=C/C=C/1C [Everolimus] (max 10 µM) | 0.387 | 0.0852 | 0.568 | 0.548 | 0.18 | 0.557 | 0.148 | 0.14 | 0.817 | 0.287 | 0.2 | 0.653 | 0.527 |
| CC[C@@]1(O)C(=O)OCc2c1cc1n(c2=O)Cc2cc3c(CN(C)C)c(O)ccc3nc2-1 [Topotecan] (max 10 µM) | -0.271 |  |  | -0.53 | -0.786 | -0.43 |  |  | -0.546 |  |  | 0.869 | 1.02 |
